Data taken from article PMC12292302, “Revealing the Improving Effect and Molecular Mechanism of L-Clausenamide in Combating the Acute Lung Injury: Insights from Network Pharmacology, Molecular Docking, and In Vitro Validation” (Biology, 2025).

Biological target: AKT1 (RAC-alpha serine/threonine-protein kinase) (Homo sapiens, UniProt P31749)
Experiment: SPR (Biacore 8K+, CM7 chip, purchased AKT1 protein MCE HY-P74421)
Type: binding

Sequence of AKT1 (RAC-alpha serine/threonine-protein kinase) (P31749 whole entry): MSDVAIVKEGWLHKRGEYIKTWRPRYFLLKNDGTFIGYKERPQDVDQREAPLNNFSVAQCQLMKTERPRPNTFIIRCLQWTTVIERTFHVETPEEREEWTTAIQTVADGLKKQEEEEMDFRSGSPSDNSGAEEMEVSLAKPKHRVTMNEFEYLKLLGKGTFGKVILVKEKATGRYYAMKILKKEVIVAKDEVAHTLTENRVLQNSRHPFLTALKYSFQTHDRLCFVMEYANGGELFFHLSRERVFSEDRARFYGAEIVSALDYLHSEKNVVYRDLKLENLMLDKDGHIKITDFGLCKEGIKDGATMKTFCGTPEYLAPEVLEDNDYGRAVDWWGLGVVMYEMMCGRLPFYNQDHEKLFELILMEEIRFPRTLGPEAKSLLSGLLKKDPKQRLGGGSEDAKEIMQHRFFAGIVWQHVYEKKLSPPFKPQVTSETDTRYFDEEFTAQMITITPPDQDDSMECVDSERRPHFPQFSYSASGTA

In the case of CN1C(=O)[C@@H](O)[C@H](c2ccccc2)[C@@H]1[C@@H](O)c1ccccc1 [L-Clausenamide], the Kd is reported as 10.3 µM.
